Laboratory results from paper PMC8402032, “Unsymmetric Cisplatin-Based Pt(IV) Conjugates Containing a PARP-1 Inhibitor Pharmacophore Tested on Malignant Pleural Mesothelioma Cell Lines” (Molecules, 2021).

What was measured:
MSTO-211H cells = assay: γH2AX foci immunofluorescence; format: cell-based, human; conditions: 5 µM, 72 h
Description: This is in tune with the activation by reduction mechanism (Scheme 1) that is able to generate CDDP in the cells.
MSTO-211H cells were plated on slides and treated for 72 h with diluent or 5 μM complex 6. Slides were then fixed for 20 min with 4% paraformaldehyde (Sigma-Aldrich), rinsed with PBS, and then the cells were permeabilized for 5 min in 0.1% Triton X-100, followed by three 5 min PBS washes. Slides were treated thrice for 10 min in a blocking solution of 5% bovine serum albumin (BSA) (Invitrogen). Mouse anti-γH2AX antibody (Millipore) was added (1:100 in 1% BSA) and incubated for 1 h in a dark, humidified environment at room temperature. Slides were then exposed to a secondary goat anti-mouse antibody, FITC (1:100 in PBS) and incubated for 1 h in the dark, humidified environment at room temperature. Slides were rinsed thrice in PBS, mounted, and cell imaged with a Leica fluorescence microscope.
(§1) Figure 4 (A) Representative Western blot showing poly(ADP-ribose) (PAR) and PARP-1 expression following 72 h MSTO-211H cell treatment with diluent (Ctrl) or 5 µM concentrations of cisplatin (CDDP), 6, CDDP + 3-ABA combination (1:1 ratio), and 3-ABA alone. HSC70 protein was used as loading control. (B) Immunocytochemistry was used to capture representative γH2AX focus images following 72 h MSTO-211H cell treatment with diluent (Ctrl) or 5 µM of complex 6.

PARP-1 [1] = molecular target: T1, PARP-1 (Homo sapiens, UniProt P09874); assay: Western blot of poly(ADP-ribose) (PAR) and PARP-1 in MSTO-211H cells; format: cell-based; conditions: 5 µM, 72 h
T1 construct: endogenous in cells; host or cells: MSTO-211H cells
Description: The effect of the most promising complex 6 on PARP-1 activity was further evaluated. MSTO-211H cells were treated with equimolar concentrations (5 µM) of 6, CDDP, and 3-ABA for 72 h. The two last compounds were used either alone or in combination in a 1:1 molar ratio. Western blot analysis evaluated the expression of poly(ADP-ribose) (PAR), which is the product of PARP-1 activity (Figure 4A).
For protein analysis, cells were extracted with 1% NP-40 lysis buffer (50 mM Tris-HCl pH 8.5 containing 1% NP-40, 150 mM NaCl, 10 mM EDTA, 10 mM NaF, 10 mM Na4P2O7, and 0.4 mM Na3VO4) with freshly added protease inhibitors (10 μg mL^−1 leupeptin, 4 μg mL^−1 pepstatin, and 0.1 U mL^−1 aprotinin). Lysates were centrifuged at 13,000× g for 10 min at 4 °C and the supernatants were collected and assayed for protein concentration with the Bradford assay method (Bio-Rad). Proteins were separated by SDS-PAGE (sodium dodecyl sulfate polyacrylamide gel electrophoresis) under reducing conditions. Following SDS-PAGE, proteins were transferred to nitrocellulose, reacted with specific antibodies, and then detected with peroxidase-conjugate secondary antibodies and chemioluminescent ECL reagent. Digital images were taken with the Bio-Rad ChemiDocTM Touch Imaging System and quantified using Bio-Rad Image Lab 5.2.1.
as §1

[2] = tested on: MM98 (sarcomatoid) malignant pleural mesothelioma cells; assay: Cell viability assay (Trypan blue dye exclusion), MM98; format: cell-based, human; conditions: 72 h treatment
Description: Complexes 6–9 were tested on a panel of human MPM cell lines together with CDDP and SAA1, added for comparison (Table 1). The half-maximal inhibitory concentration, IC50, was determined on MSTO-211H (biphasic phenotype), REN (epithelioid), BR95 (epithelioid), and MM98 (sarcomatoid) cancer cell lines to identify the most promising Pt(IV) conjugate to be further investigated. To determine the number of viable cells, the use of the dye exclusion assay was preferred to the colorimetric assay because of the heterogeneity in the energy metabolism between the different MPM cell lines. This may justify minor differences with respect to the previously published IC50 for CDDP [40].
Cells were seeded at a density of 10 × 10^4 cells per well in 6-well plates in RPMI medium supplemented with 10% fetal bovine serum (FBS), 100 μg mL^−1 streptomycin, and 10 μg mL^−1 penicillin and incubated overnight at 37 °C in a humidified environment containing 5% CO2 to allow adherence. Cisplatin was dissolved in 0.9% w/v aqueous NaCl brought to pH = 3 with HCl (final stock concentration 1 mM). The Pt(IV) complexes were dissolved in DMSO (final stock concentration 5 mM); the resulting solutions were microfiltered (0.45 μm) and their Pt content was checked by ICP-MS (see Section 3.5.2). These mother solutions were diluted in complete medium to the required concentration range.
Following 72 h of treatment with the diluent of the compound (Ctrl) or different doses of the Pt compounds, cells were trypsinized and stained with Trypan blue. The number of cells considered viable (unstained cells) was counted in a Bürker haemocytometer within 5 min after staining.

PARP-1 [3] = molecular target: T1, PARP-1; assay: Cellular thermal shift assay (CETSA) for in-cell PARP-1 target engagement; format: binding; conditions: MSTO-211H intact cells, 50 µM, 15 min; 52, 56 and 60 °C
Excerpt: In order to confirm that PARP-1 is the direct target of 6, the cellular thermal shift assay (CETSA®) was employed. This assay is based on the biophysical principle of ligand-induced thermal stabilization of target proteins. Indeed, ligand-bound proteins are stabilized by their interacting partner and melt at a higher temperature with respect to the native protein. The test involves the drug treatment of the cellular system of choice, the heating of the cell to different temperatures, and the quantification of the presence of target protein in the soluble fraction by Western blotting to validate and quantify target engagement of drugs in cells and tissues.
Multiple aliquots of MSTO-211H intact cells, previously incubated with the diluent, 3-ABA or 6, were heated to different temperatures ranging from 48 °C to 60 °C. After lysis, the soluble fractions were analyzed by SDS-PAGE followed by Western blot. In Figure 6, the stabilities of 6 and 3-ABA, at 52, 56, and 60 °C, are compared.
For the intact cell experiments, MSTO-211H cells were treated with the diluent of the compound (Ctrl) or 6 (50 µM) in complete medium for 15 min at 37 °C, in a humidified environment containing 5% CO2. […] The supernatants were then analyzed by SDS-PAGE followed by Western blot analysis as previously described. […]

T1 sequence (P09874 whole entry): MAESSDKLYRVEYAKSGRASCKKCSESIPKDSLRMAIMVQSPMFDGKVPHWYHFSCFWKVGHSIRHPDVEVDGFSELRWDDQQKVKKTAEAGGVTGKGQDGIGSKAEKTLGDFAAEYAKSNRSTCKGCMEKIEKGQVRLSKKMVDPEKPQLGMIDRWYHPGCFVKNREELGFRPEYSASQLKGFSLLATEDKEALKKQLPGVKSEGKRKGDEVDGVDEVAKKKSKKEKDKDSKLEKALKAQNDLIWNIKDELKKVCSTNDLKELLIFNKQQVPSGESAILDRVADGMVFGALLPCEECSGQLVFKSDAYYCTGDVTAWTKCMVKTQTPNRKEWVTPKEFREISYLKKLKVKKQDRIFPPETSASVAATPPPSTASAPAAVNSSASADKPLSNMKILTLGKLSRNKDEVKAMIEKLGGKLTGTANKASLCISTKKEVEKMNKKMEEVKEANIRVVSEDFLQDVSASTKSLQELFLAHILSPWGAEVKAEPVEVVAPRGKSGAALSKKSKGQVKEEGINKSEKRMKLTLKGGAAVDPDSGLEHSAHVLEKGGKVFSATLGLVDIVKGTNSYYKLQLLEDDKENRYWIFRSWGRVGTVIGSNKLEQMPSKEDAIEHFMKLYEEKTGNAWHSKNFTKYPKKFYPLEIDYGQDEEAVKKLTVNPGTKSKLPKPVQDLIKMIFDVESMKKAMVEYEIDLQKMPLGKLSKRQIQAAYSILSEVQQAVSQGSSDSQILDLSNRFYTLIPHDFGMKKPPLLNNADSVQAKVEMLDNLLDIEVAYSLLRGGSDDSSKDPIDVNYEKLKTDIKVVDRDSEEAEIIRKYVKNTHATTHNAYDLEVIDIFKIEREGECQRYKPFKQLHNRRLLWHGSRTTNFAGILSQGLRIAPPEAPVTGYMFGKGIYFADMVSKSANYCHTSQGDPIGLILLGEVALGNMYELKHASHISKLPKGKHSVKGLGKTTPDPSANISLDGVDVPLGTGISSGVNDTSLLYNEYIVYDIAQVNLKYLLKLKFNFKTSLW

PARP-1 cleavage (PARP-1 [1]): complex 6 alone did
PARP-1 parylation (PAR expression) (PARP-1 [1]): No self-parylation of PARP-1
IC50 ([2]; mean ± sd): 980 ± 30 nM
SMILES: CC(=O)[O][Pt]([NH2])([NH2])([Cl])([Cl])[O]C(=O)CCNC(=O)c1cccc(NC(=O)OCC2c3ccccc3-c3ccccc32)c1 [Compound 6, (OC-6-44)-Acetato[3-(3-(fmoc-amino)-benzamido)-propanoato]-diammine-dichlorido-platinum(IV)]
DNA damage (γH2AX foci) (MSTO-211H cells): increased number of γH2AX foci
ratio IC50 (cisplatin)/IC50 (Pt(IV) complex), MM98 [2]: 1.8
thermal stability of PARP-1 protein levels (PARP-1 [3]): more stable to heating as compared with the control and 3-ABA groups
